Reference: ChEMBL document CHEMBL1201862, “PubChem BioAssay data set” (2004)
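These data come from cells grown in 96-well plates and exposed to compound for 48 hours at five concentrations. Abbreviation: GI50, concentration required for 50% inhibition of growth.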 Calls of active or inactive are those of the source. Cut-off read from the data, not from the text of the source: active = GI50 up to about 1.1 µM and inactive = higher.

Assays:
Assay in all cases: NCI-60 cell line screen, 48 h
UACC-257 = tested on: UACC-257
SW-620 = tested on: SW-620
NCI-H23 = tested on: NCI-H23
LOX IMVI = tested on: LOX IMVI
HT-29 = tested on: HT-29
SNB-75 = tested on: SNB-75
RPMI-8226 = tested on: RPMI-8226
U-251 = tested on: U-251
A498 = tested on: A498
CCRF-CEM = tested on: CCRF-CEM
SK-MEL-28 = tested on: SK-MEL-28
SK-OV-3 = tested on: SK-OV-3
UACC-62 = tested on: UACC-62
NCI-H226 = tested on: NCI-H226
Malme-3M = tested on: Malme-3M
CAKI-1 = tested on: CAKI-1
COLO 205 = tested on: COLO 205
MOLT-4 = tested on: MOLT-4
HCC 2998 = tested on: HCC 2998
A549 = tested on: A549

Structure (SMILES) | GI50 (UACC-257) | GI50 (SW-620) | GI50 (NCI-H23) | GI50 (LOX IMVI) | GI50 (HT-29) | GI50 (SNB-75) | GI50 (RPMI-8226) | GI50 (U-251) | GI50 (A498) | GI50 (CCRF-CEM) | GI50 (SK-MEL-28) | GI50 (SK-OV-3) | GI50 (UACC-62) | GI50 (NCI-H226) | GI50 (Malme-3M) | GI50 (CAKI-1) | GI50 (COLO 205) | GI50 (MOLT-4) | GI50 (HCC 2998) | GI50 (A549)
Cc1cccc(NC(=S)N/N=C2\C(=O)Nc3ccccc32)c1 | > 100 µM (inactive) | > 100 µM (inactive) | > 100 µM (inactive) | 51.4 µM (inactive) | > 100 µM (inactive) | 63.1 µM (inactive) | > 100 µM (inactive) | 61.8 µM (inactive) | 29.7 µM (inactive) | 55 µM (inactive) | 16.1 µM (inactive) | > 100 µM (inactive) | > 100 µM (inactive) | > 100 µM (inactive) | 66.1 µM (inactive) | 38.2 µM (inactive) | 78.3 µM (inactive) | 59 µM (inactive) | > 100 µM (inactive) | 59.4 µM (inactive)
CC(SC1=CC(=O)c2c(O)ccc(O)c2C1=O)C(=O)O (stereo not given) | 35.5 µM (inactive) | > 40.8 µM (inactive) | > 56.4 µM (inactive) | > 41.2 µM (inactive) | 41.7 µM (inactive) | > 50.5 µM (inactive) | > 52.8 µM (inactive) | > 42.1 µM (inactive) | > 62.7 µM (inactive) | 3.08 µM (inactive) | > 55.1 µM (inactive) | > 100 µM (inactive) | 17.5 µM (inactive) | > 58.5 µM (inactive) | > 44.5 µM (inactive) | 27.4 µM (inactive) | 22.5 µM (inactive) | 7.48 µM (inactive) | > 73.8 µM (inactive) | 97.3 µM (inactive)
CCC(C)C(=O)c1c(O)c(C/C=C(\C)CCC=C(C)C)c(O)c2c(C(O)CC)cc(=O)oc12 (stereo not given) | 2.21 µM (inactive) | 1.98 µM (inactive) | 1.56 µM (inactive) | 2.74 µM (inactive) | 1.27 µM (inactive) | 1.49 µM (inactive) | 1.09 µM (active) | 1.51 µM (inactive) | 2.05 µM (inactive) | 0.693 µM (active) | 1.68 µM (inactive) | 4.41 µM (inactive) | 1.3 µM (inactive) | 2.53 µM (inactive) | 2.24 µM (inactive) | 2.23 µM (inactive) | 1.71 µM (inactive) | 1.59 µM (inactive) | 0.358 µM (active) | 2.72 µM (inactive)
O=C1OC(c2ccccc2Br)=N/C1=C/c1ccccc1 | > 100 µM (inactive) | 42.9 µM (inactive) | 32.8 µM (inactive) | 21.7 µM (inactive) | 32.1 µM (inactive) | 53.5 µM (inactive) | 33.1 µM (inactive) | 26.6 µM (inactive) | > 100 µM (inactive) | 35 µM (inactive) | 41.8 µM (inactive) | 63.7 µM (inactive) | 37.1 µM (inactive) | 18.8 µM (inactive) | 19.6 µM (inactive) | 35.2 µM (inactive) | > 10 µM (inactive) | 48.8 µM (inactive) | 19.1 µM (inactive) | 29.6 µM (inactive)
Cc1cc(N(CCC#N)CCC#N)ccc1/N=N/c1cc(Cl)ccc1Cl | 10.7 µM (inactive) | 2.36 µM (inactive) | 13.4 µM (inactive) | 3.62 µM (inactive) | 2.64 µM (inactive) | 13 µM (inactive) | 5.35 µM (inactive) | 18.3 µM (inactive) | 20.1 µM (inactive) | 2.92 µM (inactive) | 7.87 µM (inactive) | 16.3 µM (inactive) | 10.1 µM (inactive) | 6.38 µM (inactive) | 4.98 µM (inactive) | 3.5 µM (inactive) | 2.04 µM (inactive) | 5.13 µM (inactive) | 16.6 µM (inactive) | 19.2 µM (inactive)
C[C@H]1COC(c2ccccn2)=N1 | > 100 µM (inactive) | > 100 µM (inactive) | > 100 µM (inactive) | > 100 µM (inactive) | > 100 µM (inactive) | > 100 µM (inactive) | > 100 µM (inactive) | > 100 µM (inactive) | > 100 µM (inactive) | > 100 µM (inactive) | > 100 µM (inactive) | > 100 µM (inactive) | > 100 µM (inactive) | > 100 µM (inactive) | > 100 µM (inactive) | > 100 µM (inactive) | > 100 µM (inactive) | > 100 µM (inactive) | > 100 µM (inactive) | > 100 µM (inactive)
CC(CO)(CO)N1C(=O)C2C3C=CC(C3)C2C1=O (stereo not given) | > 100 µM (inactive) | > 100 µM (inactive) | > 100 µM (inactive) | > 100 µM (inactive) | > 100 µM (inactive) | > 100 µM (inactive) | > 100 µM (inactive) | > 100 µM (inactive) | > 100 µM (inactive) | > 100 µM (inactive) | > 100 µM (inactive) | > 100 µM (inactive) | > 100 µM (inactive) | > 100 µM (inactive) | > 100 µM (inactive) | > 100 µM (inactive) | > 100 µM (inactive) | > 100 µM (inactive) | > 100 µM (inactive) | > 100 µM (inactive)
CCn1c(SCC(=O)N/N=C/c2ccccc2)nc2ccccc2c1=O | 21.8 µM (inactive) | 1.99 µM (inactive) | 31.8 µM (inactive) | 6.68 µM (inactive) | 4.06 µM (inactive) | 12.8 µM (inactive) | 14.2 µM (inactive) | 18.5 µM (inactive) | 8.22 µM (inactive) | 9.89 µM (inactive) | 39.4 µM (inactive) | 17.8 µM (inactive) | 5.52 µM (inactive) | 10.8 µM (inactive) | 12.5 µM (inactive) | 9.08 µM (inactive) | 8.34 µM (inactive) | 5.14 µM (inactive) | 5.22 µM (inactive) | 4.89 µM (inactive)
COc1ccc2cc(CN3CCC(C4CCN(Cc5ccc6cc(OC)ccc6c5)CC4)CC3)ccc2c1 | 2.09 µM (inactive) | 2.64 µM (inactive) | 17.1 µM (inactive) | 2.14 µM (inactive) | 2.2 µM (inactive) | 4.45 µM (inactive) | 1.52 µM (inactive) | 2.52 µM (inactive) | 8.43 µM (inactive) | 2.16 µM (inactive) | 2.21 µM (inactive) | 26.3 µM (inactive) | 1.97 µM (inactive) | 16.6 µM (inactive) | 2.17 µM (inactive) | 2.73 µM (inactive) | 1.78 µM (inactive) | 2.2 µM (inactive) | 0.18 µM (active) | 24.9 µM (inactive)
CC1=C(C(=O)Nc2ccccc2C)C(c2ccc(Cl)c(Cl)c2)C(C(=O)Nc2ccccc2C)=C(C)N1 | 19.9 µM (inactive) | 31.6 µM (inactive) | 19.8 µM (inactive) | 20.9 µM (inactive) | 20 µM (inactive) | 36.5 µM (inactive) | 16.1 µM (inactive) | 19.3 µM (inactive) | 27.5 µM (inactive) | 22.7 µM (inactive) | 25.8 µM (inactive) | 22.9 µM (inactive) | 17.4 µM (inactive) | 15.2 µM (inactive) | 22.5 µM (inactive) | 26.7 µM (inactive) | 16.4 µM (inactive) | 12.6 µM (inactive) | 25.6 µM (inactive) | 24.2 µM (inactive)
CSc1nc2c(c(=O)n1C)N=C(c1ccc(Cl)cc1)CC(c1ccccc1)N2 (stereo not given) | 22.6 µM (inactive) | 49 µM (inactive) | 24.1 µM (inactive) | 20.6 µM (inactive) | 15.6 µM (inactive) | 13.3 µM (inactive) | 22 µM (inactive) | 40.8 µM (inactive) | 33 µM (inactive) | 26 µM (inactive) | 47.8 µM (inactive) | 29.4 µM (inactive) | 16.1 µM (inactive) | 17.6 µM (inactive) | 16.1 µM (inactive) | 24.4 µM (inactive) | 21.7 µM (inactive) | 14.1 µM (inactive) | 24.6 µM (inactive) | 25.2 µM (inactive)
CCCc1[nH]c2ccccc2c1-c1c(CCC)[nH]c2ccccc12 | 18.1 µM (inactive) | 6.76 µM (inactive) | 8.05 µM (inactive) | 4.35 µM (inactive) | 8.61 µM (inactive) | 19.4 µM (inactive) | 19.7 µM (inactive) | 6.71 µM (inactive) | > 86.1 µM (inactive) | 8.26 µM (inactive) | 7.46 µM (inactive) | 24.1 µM (inactive) | 13.3 µM (inactive) | 19.2 µM (inactive) | 16 µM (inactive) | 18.6 µM (inactive) | 17.9 µM (inactive) | 30.1 µM (inactive) | 22.9 µM (inactive) | 27.7 µM (inactive)
COC(=O)/C=c1\s/c(=C\C(=O)OC)c2ccccc12 | > 100 µM (inactive) | > 100 µM (inactive) | > 100 µM (inactive) | > 100 µM (inactive) | > 100 µM (inactive) | 27.9 µM (inactive) | > 100 µM (inactive) | > 100 µM (inactive) | > 100 µM (inactive) | > 100 µM (inactive) | > 100 µM (inactive) | > 100 µM (inactive) | > 100 µM (inactive) | 57.8 µM (inactive) | > 100 µM (inactive) | > 100 µM (inactive) | > 100 µM (inactive) | > 100 µM (inactive) | > 100 µM (inactive) | > 100 µM (inactive)
COc1ccc2c(c1)c(=O)c1ccccc1n2/C=C/C(=O)O | > 100 µM (inactive) | > 100 µM (inactive) | > 100 µM (inactive) | > 46.9 µM (inactive) | > 74.8 µM (inactive) | > 100 µM (inactive) | > 100 µM (inactive) | > 27 µM (inactive) | > 100 µM (inactive) | > 48.4 µM (inactive) | > 100 µM (inactive) | > 100 µM (inactive) | > 100 µM (inactive) | > 100 µM (inactive) | > 100 µM (inactive) | > 100 µM (inactive) | > 56.8 µM (inactive) | > 100 µM (inactive) | > 100 µM (inactive) | > 100 µM (inactive)
